The subject of series [1] is Pim-2. Conditions: Figure 1; cited from earlier work.
In series [2] the test system is Pim-1. The conditions noted are these: Figure 1; cited from earlier work.
In series [3] the test system is K562 cells. Kind of series: MTT cell proliferation assay. Conditions: Homo sapiens, 48 h, mean ± SEM. The series is classed as cell-based. The source says: (§1) Various types of hematological malignancies were selected for in vitro testing: the human acute myeloid leukemia (AML) cell line MV4-11, and the human chronic myeloid leukemia (CML) cell lines KU812 and K562. Indeed, Pim kinases are overexpressed in a wide range of hematopoietic malignancies. Solid tumors were also included in the panel of tested cell lines: MCF-7 (human breast adenocarcinoma), HT-29 (human colon adenocarcinoma), and HeLa (human cervical cancer) cells. Cytotoxic effects were evaluated using an MTT assay, and living cells were also counted with the trypan blue dye exclusion method for MV4-11, KU812, and K562 cells.
(§2) MV4-11, K562, and KU812 cell lines were obtained from the Deutshe Sammlung von Mikroorganismens und Zellkulturen (DSMZ) and maintained according to the supplier’s recommendations. All cell lines were cultured in RPMI, with 10% fetal bovine serum, 1% glutamine, and 1% penicillin/ streptomycin at 37 °C and 5% CO2.
(§3) MV4-11, K562, and KU812 cells’ viability was studied using a MTT cell proliferation assay.
(§4) MV4-11, K562, and KU812 cells were incubated with 10 μL of MTT working solution (5 g/L of methylthiazolyldiphenyl-tetrazolium bromide from Sigma Aldrich, Lyon, France) for 4 h. Cells were then lysed overnight at 37 °C with 100 μL of 10% SDS and 0.003% HCl. Optical density (OD) at 570 nm was measured using a spectrophotometer CLARIOstar® (BMG Labtech, Offenburg, Germany). Living cells were also counted with the trypan blue dye exclusion method. […] Data were collected from at least three independent experiments and the values reported are means ± standard errors of the mean (SEM).
For orientation: Tetrazolium dyes change colour on reduction, which living cells bring about.

The test system of series [4] is KU812 cells. The series can be described thus: MTT cell proliferation assay. The conditions noted are these: Homo sapiens, 48 h, mean ± SEM. The class given is cell-based.
Description: as §1, §2, §3, §4

Series [5] deals with MV4-11 cells. Kind of series: MTT cell proliferation assay. The series is classed as cell-based, human. Conditions: Homo sapiens, MV4-11, 48 h, mean ± SEM.
Description: as §1, §2, §3, §4

For series [6], the system named is HeLa cells. Kind of series: MTT cytotoxicity assay. The series is classed as cell-based. The conditions noted are these: Homo sapiens, 72 h.
Description: as §1
(§5) The cancer cell lines MCF-7, HT-29, and HeLa were obtained from Cell Bank of Rio de Janeiro, Brazil, and were grown in RPMI-1640 medium and L929 cells were grown in Dulbecco’s Modified Eagle’s Medium (DMEM). Both media were supplemented with fetal bovine serum (FBS) (10% of the final concentration) followed by treatment with penicillin and streptomycin as antibiotics (1% of the final concentration). The crude was incubated in the presence of CO2 atmosphere (5%) for 24 h with the temperature monitored and maintained at 37 °C.
(§6) MCF-7, HT-29, HeLa, and L929 cells (3×10^5 cells/mL) were plated in 96-well plates and incubated in the presence of CO2 atmosphere (5%) for 24 h at 37 °C. […] Then, 25 μL of MTT (5 mg/mL in PBS) were added to each well and the plates were left for another 3 h in the incubator at 37 °C and at the end of this period, the supernatant was aspirated. To perform the reading, 100 μL of dimethylsulfoxide (DMSO) were added in each well for the dissolution of the formazan crystals. The amount of formazan was measured by reading the plate at 560 nm absorbance. […] Each sample was tested in triplicate in two independent experiments.

In series [7] the test system is HT-29 cells. The series can be described thus: MTT cytotoxicity assay. The series is classed as cell-based. Conditions: Homo sapiens, 72 h.
Description: as §1, §5, §6

In series [8] the test system is MCF-7 cells. The series can be described thus: MTT cytotoxicity assay. Conditions: Homo sapiens, MCF7, 72 h. The class given is cell-based.
Description: as §1, §5, §6

Series [9] deals with T1, HsPim-1 (Homo sapiens, UniProt P11309).
T1 construct: made in house; host or cells: Escherichia coli BL21 DE3 pLysS
T1 sequence (P11309 whole entry): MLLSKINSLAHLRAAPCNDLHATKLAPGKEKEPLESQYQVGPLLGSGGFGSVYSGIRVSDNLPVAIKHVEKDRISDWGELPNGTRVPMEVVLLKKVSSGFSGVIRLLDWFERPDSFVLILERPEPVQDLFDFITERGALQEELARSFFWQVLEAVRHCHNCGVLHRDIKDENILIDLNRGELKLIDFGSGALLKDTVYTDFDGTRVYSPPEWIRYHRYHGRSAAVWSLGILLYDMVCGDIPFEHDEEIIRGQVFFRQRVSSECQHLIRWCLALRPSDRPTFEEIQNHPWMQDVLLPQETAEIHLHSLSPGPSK
The series can be described thus: Kinase assay, luminescent ADP-Glo, 10 µM ATP. The class given is biochemical. The procedure:
(§7) The synthesized compounds were tested using a luminescence-based assay against a panel of nine kinases: Pim-1, Pim-2, CDK5/p25, CDK9/CyclinT, Haspin, CK1ε, and GSK3β (from human); DYRK1A (from Rattus norvegicus); and CLK1 (from Mus musculus).
(§8) Kinase enzymatic activities were assayed with 10 µM ATP in 384-well plates using the luminescent ADP-Glo^TM assay (Promega, Madison, WI, USA) according to the recommendations of the manufacturer (see [56] for details on this method). The transmitted signal was measured using the Envision (PerkinElmer, Waltham, MA, USA) microplate luminometer and expressed in relative light unit (RLU). In order to determine the half maximal inhibitory concentration (IC50), the assays were performed in duplicate in the absence or presence of increasing doses of the tested compounds. GraphPad Prism6 software (GraphPad Software, San Diego, CA, USA) was used to fit dose–response curves and to determine the IC50 values. Kinase activities are expressed in % of maximal activity, i.e., measured in the absence of inhibitor. Peptide substrates were obtained from Proteogenix (Schiltigheim, France).
(§9) For kinases expressed in bacteria, the Escherichia coli BL21 DE3 pLysS strain (Invitrogen, ThermoFisher Scientific, Waltham, MA, USA) was transformed with pGEX-2T-1 (Sigma-Aldrich, St. Louis, MO, USA) containing the coding region of the corresponding kinase. For kinases expressed in Sf9 insect cells, the coding region of the corresponding kinase was cloned in pFastBac^TM vector. Purification of the recombinant kinases was performed following the protocol “Bac-to-Bac® Baculovirus Expression System” provided by the manufacturer (Invitrogen, ThermoFisher Scientific, Waltham, MA, USA).
(§10) To validate the kinase assay, model inhibitors were used for each tested enzyme: Staurosporine from Streptomyces sp. (#S5921, purity ≥ 95%, Sigma-Aldrich) for HsCK1ε; Indirubin-30-oxime (#I0404, purity ≥ 98%, Sigma-Aldrich) for HsGSK-3β, HsPim-1 and 2, human cyclin-dependent kinases, RnDYRK1A and MmCLK1; CHR-6494 (#SML0648, purity ≥ 98%, Sigma-Aldrich) for Haspin.
On the technique in general: In ADP-Glo the light output rises with the ADP produced.

Series [10] concerns the target T2, HsPim-2 (Homo sapiens, UniProt Q9P1W9).
T2 construct: made in house; host or cells: Escherichia coli BL21 DE3 pLysS
The series can be described thus: Kinase assay, luminescent ADP-Glo, 10 µM ATP. The conditions noted are these: mean of n ≥ 3, read-out: IC50 Pim-2. The class given is biochemical. The procedure: as §7, §8, §9, §10

The target of series [11] is T3, HsCDK5/p25 (Homo sapiens, UniProt Q00535).
T3 construct: made in house; host or cells: Escherichia coli BL21 DE3 pLysS
T3 sequence (Q00535 whole entry): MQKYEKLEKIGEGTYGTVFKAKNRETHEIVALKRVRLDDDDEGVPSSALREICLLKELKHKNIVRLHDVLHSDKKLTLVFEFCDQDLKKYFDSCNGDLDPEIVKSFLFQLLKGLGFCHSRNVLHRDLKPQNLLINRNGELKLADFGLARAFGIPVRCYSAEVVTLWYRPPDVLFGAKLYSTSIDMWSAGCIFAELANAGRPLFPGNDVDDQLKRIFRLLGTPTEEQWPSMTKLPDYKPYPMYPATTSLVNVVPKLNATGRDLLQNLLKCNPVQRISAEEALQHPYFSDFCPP
T3 sequence (Q15078 99-307 partner limits assumed): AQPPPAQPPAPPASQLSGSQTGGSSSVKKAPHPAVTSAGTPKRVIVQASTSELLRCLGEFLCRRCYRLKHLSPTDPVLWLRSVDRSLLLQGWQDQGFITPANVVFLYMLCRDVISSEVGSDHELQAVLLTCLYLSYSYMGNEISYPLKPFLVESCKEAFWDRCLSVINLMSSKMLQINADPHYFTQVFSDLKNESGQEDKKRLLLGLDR
Kind of series: Kinase assay, luminescent ADP-Glo, 10 µM ATP. The class given is biochemical. The conditions noted are these: duplicate, read-out: Kinase Enzymatic IC50 CDK5/p25. The procedure: as §7, §8, §9, §10

Series [12] deals with T4, HsCDK9/CyclinT (Homo sapiens, UniProt P50750).
T4 construct: made in house; host or cells: Sf9 insect cells (baculovirus, pFastBac)
T4 sequence (P50750 whole entry): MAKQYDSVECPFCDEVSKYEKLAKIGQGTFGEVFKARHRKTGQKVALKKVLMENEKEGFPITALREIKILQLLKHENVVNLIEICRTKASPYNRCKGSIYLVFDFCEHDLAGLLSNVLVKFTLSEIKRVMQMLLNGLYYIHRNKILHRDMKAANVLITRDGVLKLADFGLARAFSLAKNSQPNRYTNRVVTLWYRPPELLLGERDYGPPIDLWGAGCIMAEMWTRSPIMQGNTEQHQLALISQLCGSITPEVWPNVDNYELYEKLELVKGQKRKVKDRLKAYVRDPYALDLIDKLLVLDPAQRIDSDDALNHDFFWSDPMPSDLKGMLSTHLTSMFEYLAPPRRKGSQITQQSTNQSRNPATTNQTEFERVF
T4 sequence (O60563 whole entry partner): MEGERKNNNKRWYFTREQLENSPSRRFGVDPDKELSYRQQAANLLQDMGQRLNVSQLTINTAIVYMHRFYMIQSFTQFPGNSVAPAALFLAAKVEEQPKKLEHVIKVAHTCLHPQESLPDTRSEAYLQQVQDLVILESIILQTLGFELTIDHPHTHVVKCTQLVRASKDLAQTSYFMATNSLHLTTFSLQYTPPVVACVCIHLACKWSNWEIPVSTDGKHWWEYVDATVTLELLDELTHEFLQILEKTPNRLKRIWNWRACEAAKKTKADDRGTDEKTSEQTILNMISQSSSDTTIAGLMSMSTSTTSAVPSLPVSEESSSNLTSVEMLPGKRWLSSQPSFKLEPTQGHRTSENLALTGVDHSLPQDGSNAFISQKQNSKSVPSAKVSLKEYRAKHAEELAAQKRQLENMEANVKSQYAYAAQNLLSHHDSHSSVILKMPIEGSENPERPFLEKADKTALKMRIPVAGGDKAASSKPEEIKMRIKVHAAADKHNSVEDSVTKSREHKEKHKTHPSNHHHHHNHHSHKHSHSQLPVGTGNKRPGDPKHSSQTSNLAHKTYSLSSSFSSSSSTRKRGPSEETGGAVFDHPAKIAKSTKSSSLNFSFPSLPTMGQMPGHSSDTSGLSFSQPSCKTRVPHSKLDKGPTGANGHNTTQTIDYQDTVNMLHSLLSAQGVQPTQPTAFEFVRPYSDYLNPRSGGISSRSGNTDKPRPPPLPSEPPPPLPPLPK
The series can be described thus: Kinase assay, luminescent ADP-Glo, 10 µM ATP. The conditions noted are these: duplicate, read-out: Kinase Enzymatic IC50 CDK9/CyclinT. The series is classed as biochemical. The procedure: as §7, §8, §9, §10

The target of series [13] is T5, MmCLK1 (Mus musculus, UniProt P22518).
T5 construct: made in house; host or cells: Escherichia coli BL21 DE3 pLysS
T5 sequence (P22518 whole entry): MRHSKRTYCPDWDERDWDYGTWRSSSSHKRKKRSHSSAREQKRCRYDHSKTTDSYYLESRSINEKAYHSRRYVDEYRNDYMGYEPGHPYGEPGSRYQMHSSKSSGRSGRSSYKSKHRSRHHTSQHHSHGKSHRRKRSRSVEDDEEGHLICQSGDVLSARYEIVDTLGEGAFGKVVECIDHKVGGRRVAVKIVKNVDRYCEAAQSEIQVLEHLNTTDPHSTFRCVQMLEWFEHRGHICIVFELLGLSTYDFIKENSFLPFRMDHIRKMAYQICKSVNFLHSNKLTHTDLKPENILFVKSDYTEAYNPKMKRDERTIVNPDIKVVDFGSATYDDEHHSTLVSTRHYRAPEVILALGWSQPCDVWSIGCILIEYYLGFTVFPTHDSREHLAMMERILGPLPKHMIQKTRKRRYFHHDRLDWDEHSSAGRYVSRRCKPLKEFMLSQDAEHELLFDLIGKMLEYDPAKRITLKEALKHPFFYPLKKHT
Kind of series: Kinase assay, luminescent ADP-Glo, 10 µM ATP. The series is classed as biochemical. The conditions noted are these: for IC50: ADP-Glo, 10 µM ATP, duplicate, read-out: Kinase Enzymatic IC50 CLK1. The procedure:
as §7, §8, §9, §10

The test system of series [14] is CaPkc1. Also noted: method as in PMID 20865172. Conditions: ATP-competitive; cited from earlier work.
Series [15] has as its target RnDYRK1A-kd (Rattus norvegicus, UniProt Q63470). The series can be described thus: Kinase assay, luminescent ADP-Glo, 10 µM ATP. The class given is biochemical. The conditions noted are these: read-out: IC50 DYRK1A. The procedure: as §7, §8, §9, §10
The subject of series [16] is L929 cells. The series can be described thus: MTT assay, in vitro toxicity on normal cells. Conditions: 72 h, normal mouse fibroblasts. The series is classed as cell-based.
Description: as §1, §5, §6

The target in series [17] is T6, HsCK1ε (Homo sapiens, UniProt P49674).
T6 construct: made in house; host or cells: Sf9 insect cells (baculovirus, pFastBac)
T6 sequence (P49674 whole entry): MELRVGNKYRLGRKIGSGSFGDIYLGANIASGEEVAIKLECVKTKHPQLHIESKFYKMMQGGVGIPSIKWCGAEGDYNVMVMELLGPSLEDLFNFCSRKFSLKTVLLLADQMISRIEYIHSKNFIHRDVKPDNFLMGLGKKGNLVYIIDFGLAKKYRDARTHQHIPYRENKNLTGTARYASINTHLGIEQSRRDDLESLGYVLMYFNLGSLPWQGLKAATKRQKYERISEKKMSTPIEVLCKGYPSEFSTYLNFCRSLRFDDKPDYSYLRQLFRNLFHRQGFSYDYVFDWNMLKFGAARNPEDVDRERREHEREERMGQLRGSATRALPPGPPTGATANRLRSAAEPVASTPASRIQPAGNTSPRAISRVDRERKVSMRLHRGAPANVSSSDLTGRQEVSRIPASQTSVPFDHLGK
The series can be described thus: Kinase assay, luminescent ADP-Glo, 10 µM ATP. The class given is biochemical. Conditions: read-out: IC50 CK1. The procedure:
as §7, §8, §9, §10

Where [18] appears, read: Table 1, ADP-Glo, 10 µM ATP, duplicate, read-out: Kinase Enzymatic IC50 Pim-1.
The mark [19] stands for this setting: Table 2, ADP-Glo, 10 µM ATP, mean of n ≥ 3, read-out: IC50 Pim-1.

Results on five compounds are retold here after paper PMC8587151, “Dibenzofuran Derivatives Inspired from Cercosporamide as Dual Inhibitors of Pim and CLK1 Kinases” (Molecules, 2021).

Structures are written as SMILES. Several values for one entry are separate records, joined by “and”; a condition that tells them apart may be missing. Identical values can stand only once. Like-named read-outs stand apart in the source and are kept apart here. Some results are limits rather than exact numbers.

What is called melting point is the temperature, or range, at which the solid turns liquid.

T2 sequence (Q9P1W9 whole entry): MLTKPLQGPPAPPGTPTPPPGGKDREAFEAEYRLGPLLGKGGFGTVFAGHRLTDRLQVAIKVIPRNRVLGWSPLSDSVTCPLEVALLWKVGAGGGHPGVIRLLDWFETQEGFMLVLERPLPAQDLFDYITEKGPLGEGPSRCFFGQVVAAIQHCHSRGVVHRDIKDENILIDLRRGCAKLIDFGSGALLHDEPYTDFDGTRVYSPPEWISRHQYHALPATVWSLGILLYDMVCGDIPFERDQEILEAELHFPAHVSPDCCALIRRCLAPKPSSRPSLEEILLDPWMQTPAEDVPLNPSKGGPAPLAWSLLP

For the compound `CC(=O)C1=C(O)C=C2Oc3c(C(C)=O)c(O)c(C)c(O)c3[C@@]2(C)C1=O` [(+)-Usnic acid], the values for the IC50 in [1] and in series [2] were 0.58 µM and 0.21 µM, respectively.
Consider `CC(=O)C1=C(O)C=C2Oc3c(C(N)=O)c(O)cc(O)c3[C@]2(C)C1=O` [Cerco, Cercosporamide], for which the IC50 is above 100 µM in [3]; above 100 µM in series [4]; 31.5 ± 4.7 µM in series [5]; 7.5 ± 3.1 µM in series [6]; 10.4 µM in [7]; 44.3 ± 2.1 µM in [8]. The IC50 in series [9] (setting [18]) stood at 0.73 µM; in series [9] (setting [19]) it was 0.73 µM; in series [9] (printed in Figure 1, no reference given, read-out: Pim-1 IC50 (Figure 1)), 0.732 µM; in series [10], 1.43 µM; in series [11], 5.6 µM; in [12], 0.22 µM. Besides, the IC50 in [13] was above 10 µM; in series [14], 0.044 µM.
`COc1cc(OC)c2c(oc3ccc(F)cc32)c1C(N)=O` [Compound 41, 8-Fluoro-1,3-dimethoxydibenzo[b,d]furan-4-carboxamide] displayed a melting point of 230 to 231 °C. Besides, the IC50 in series [9] (setting [18]) was above 10 µM. Moreover, the IC50 in [15] came to 1.33 µM.
Turning to `CC(=O)c1ccc2oc3c(C(N)=O)c(O)cc(O)c3c2c1` [Compound 45, 8-Acetyl-1,3-dihydroxydibenzo[b,d]furan-4-carboxamide], the IC50 is above 100 µM in [3]; 69.4 ± 12.9 µM in [4]; 8.8 ± 0.9 µM in series [5]; 59.6 ± 7.6 µM in [6]; above 100 µM in [8]; above 100 µM in series [16]. Besides, the IC50 in [9] (setting [18]) was 0.28 µM; in [9] (setting [19]) it was 0.28 µM; in [10] it was 0.12 µM; in [11], above 10 µM; in series [12], above 10 µM; in series [13] it was 0.14 µM. Further, in series [13] (ratio of IC50 values), the “fold less active than 44 against CLK1” value worked out at 5 fold.
On to `NC(=O)c1c(O)cc(O)c2c1oc1ccc(F)cc12` [Compound 46, 8-Fluoro-1,3-dihydroxydibenzo[b,d]furan-4-carboxamide], for which the melting point was 342 to 343 °C. The compound also returned an IC50 in series [3] above 100 µM. In [4], this compound returned an IC50 above 100 µM. In addition, the IC50 in series [5] is 16.1 ± 1.6 µM. Moreover, in series [9] (setting [18]), the IC50 is > 1 µM and 1.2 µM. For the same compound, the IC50 in [9] (setting [19]) came to 1.2 µM. Further, in series [15], the IC50 turned out to be 0.69 µM. Also, in [12], the IC50 was determined as 0.92 µM. Moreover, the IC50 in series [17] stood at 0.68 µM.
